# Data reported in ChEMBL document CHEMBL1833888, “Fuscoside E: a strong anti-inflammatory diterpene from Caribbean octocoral Eunicea fusca” (2011).
# Activity calls are given as the source filed them. No cut-off for these calls is given here.
# Experiments:
# Mus musculus = assay: Antiinflammatory activity in mouse assessed as inhibition of TPA-induced mouse ear edema at 0.5 mg/ear administered relative to untreated control; type: functional
# [1] = tested on: Brucella pseudogrignonensis; assay: Antibacterial activity against Ochrobactrum pseudogrignonense 21-6 pin by disc-diffusion assay; type: functional, organism-based
# Bacillus sp. = assay: Antibacterial activity against Bacillus sp. by disc-diffusion assay; type: functional, organism-based
# Vibrio sp. = assay: Antibacterial activity against Vibrio sp. 11-6 DEP; type: functional
SMILES,inhibition (INH) (Mus musculus) [%],Activity [1],Activity (Bacillus sp.),MIC (Vibrio sp.) [µg/mL]
C=C1/C=C/[C@@H](C(C)C)CC/C(C)=C/CC1,7.1,Active,Active,15
CC(C)C(C)CC[C@@H](C)[C@H]1CC[C@H]2[C@@H]3CC=C4C[C@@H](O)CC[C@]4(C)[C@H]3CC[C@]12C (some centres not stated),–,Active,Active,–
C/C=C(\CC[C@@H](C)[C@H]1CC[C@H]2[C@@H]3CC=C4C[C@@H](O)CC[C@]4(C)[C@H]3CC[C@]12C)C(C)C,–,Active,Active,–
CC(C)CCC[C@@H](C)[C@H]1CC[C@H]2[C@@H]3CC=C4C[C@@H](O)CC[C@]4(C)[C@H]3CC[C@]12C,–,Active,Active,–
CC(C)C(C)/C=C/[C@@H](C)[C@H]1CC[C@H]2[C@@H]3CC=C4C[C@@H](O)CC[C@]4(C)[C@H]3CC[C@]12C (some centres not stated),–,Active,Active,–
COc1ccc2c(c1)c(CC(=O)O)c(C)n2C(=O)c1ccc(Cl)cc1 [INDOMETHACIN],77.3,–,–,–
C=C[C@@]1(C)CC[C@H](/C(C)=C/C=C/C(C)(C)O[C@@H]2OC[C@@H](O)[C@@H](O)[C@@H]2O)C[C@@H]1C(=C)C [FUSCOSIDE B],81.5,–,–,–
C=C[C@@]1(C)CC[C@H](/C(C)=C/C=C/C(C)(C)O)C[C@@H]1C(=C)C [FUSCOL],27.3,–,–,–
CC(=O)O[C@@H]1[C@H](O[C@H]2CC[C@H](C)[C@@]3(C)C[C@@H](/C(C)=C/CC=C(C)C)CC[C@H]23)OC[C@@H](O)[C@H]1O [FUSCOSIDE E],80.5,Active,Active,–
C/C=C(/CC[C@@H](C)[C@H]1CC[C@H]2[C@@H]3CC=C4C[C@@H](O)CC[C@]4(C)[C@H]3CC[C@]12C)C(C)C,–,Active,Active,–
CC(C)C/C=C/[C@@H](C)[C@H]1CC[C@H]2[C@@H]3CC=C4C[C@@H](O)CC[C@]4(C)[C@H]3CC[C@]12C,–,Active,Active,–
